Source: ChEMBL document CHEMBL4396916, “Novel potent substituted 4-amino-2-thiopyrimidines as dual VEGFR-2 and BRAF kinase inhibitors” (Eur J Med Chem, 2019)
pIC50: −log10 of the molar value.

Tests used:
A549 = assay: Growth inhibition of human A549/ATCC cells at 10 uM incubated for 48 hrs by sulforhodamine B assay relative to control; type: functional; conditions: A549, 48 h, read-out: GI
HOP-62 = assay: Growth inhibition of human HOP62 cells at 10 uM incubated for 48 hrs by sulforhodamine B assay relative to control; type: functional; conditions: HOP-62, 48 h, read-out: GI
RPMI-8226 = assay: Growth inhibition of human RPMI8226 cells at 10 uM incubated for 48 hrs by sulforhodamine B assay relative to control; type: functional; conditions: RPMI-8226, 48 h, read-out: GI
MOLT-4 = assay: Growth inhibition of human MOLT4 cells at 10 uM incubated for 48 hrs by sulforhodamine B assay relative to control; type: functional; conditions: MOLT-4, 48 h, read-out: GI
EKVX = assay: Growth inhibition of human EKVX cells at 10 uM incubated for 48 hrs by sulforhodamine B assay relative to control; type: functional; conditions: read-out: GI
NCI-H226 = assay: Growth inhibition of human NCI-H226 cells at 10 uM incubated for 48 hrs by sulforhodamine B assay relative to control; type: functional; conditions: NCI-H226, 48 h, read-out: GI
SK-OV-3 = assay: Growth inhibition of human SKOV3 cells at 10 uM incubated for 48 hrs by sulforhodamine B assay relative to control; type: functional; conditions: SK-OV-3, 48 h, read-out: GI
ACHN = assay: Growth inhibition of human ACHN cells at 10 uM incubated for 48 hrs by sulforhodamine B assay relative to control; type: functional; conditions: read-out: GI
HCT-15 = assay: Growth inhibition of human HCT15 cells at 10 uM incubated for 48 hrs by sulforhodamine B assay relative to control; type: functional; conditions: HCT-15, 48 h, read-out: GI
NCI-H23 = assay: Growth inhibition of human NCI-H23 cells at 10 uM incubated for 48 hrs by sulforhodamine B assay relative to control; type: functional; conditions: NCI-H23, 48 h, read-out: GI
SF-539 = assay: Growth inhibition of human SF539 cells at 10 uM incubated for 48 hrs by sulforhodamine B assay relative to control; type: functional; conditions: SF-539, 48 h, read-out: GI
MCF7 [1] = assay: Cytotoxicity against human MCF7 cells expressing VEGFR2 and wild type BRAF measured after 48 hrs by sulforhodamine B assay; type: functional, cell-based; conditions: MCF7, 48 h
MCF7 [2] = assay: Inhibition of VEGFR2 level in human MCF7 cells at 10 uM measured after 48 hrs by ELISA relative to control; type: functional; conditions: MCF7, 48 h
PC-3 = assay: Growth inhibition of human PC3 cells at 10 uM incubated for 48 hrs by sulforhodamine B assay relative to control; type: functional; conditions: PC-3, 48 h, read-out: GI
OVCAR-4 = assay: Growth inhibition of human OVCAR4 cells at 10 uM incubated for 48 hrs by sulforhodamine B assay relative to control; type: functional; conditions: OVCAR-4, 48 h, read-out: GI
MCF7 [3] = assay: Growth inhibition of human MCF7 cells at 10 uM incubated for 48 hrs by sulforhodamine B assay relative to control; type: functional; conditions: MCF7, 48 h, read-out: GI
T47D [4] = assay: Growth inhibition of human T47D cells at 10 uM incubated for 48 hrs by sulforhodamine B assay relative to control; type: functional; conditions: read-out: GI
Hs-578T = assay: Growth inhibition of human Hs578T cells at 10 uM incubated for 48 hrs by sulforhodamine B assay relative to control; type: functional; conditions: read-out: GI
K562 = assay: Growth inhibition of human K562 cells at 10 uM incubated for 48 hrs by sulforhodamine B assay relative to control; type: functional; conditions: K562, 48 h, read-out: GI
OVCAR-5 = assay: Growth inhibition of human OVCAR5 cells at 10 uM incubated for 48 hrs by sulforhodamine B assay relative to control; type: functional; conditions: OVCAR-5, 48 h, read-out: GI
HCT-116 = assay: Growth inhibition of human HCT116 cells at 10 uM incubated for 48 hrs by sulforhodamine B assay relative to control; type: functional; conditions: HCT-116, 48 h, read-out: GI
NCI-H522 = assay: Growth inhibition of human NCI-H522 cells at 10 uM incubated for 48 hrs by sulforhodamine B assay relative to control; type: functional; conditions: NCI-H522, 48 h, read-out: GI
CAKI-1 = assay: Growth inhibition of human Caki1 cells at 10 uM incubated for 48 hrs by sulforhodamine B assay relative to control; type: functional; conditions: CAKI-1, 48 h, read-out: GI
A498 = assay: Growth inhibition of human A498 cells at 10 uM incubated for 48 hrs by sulforhodamine B assay relative to control; type: functional; conditions: A498, 48 h, read-out: GI
MDA-MB-468 = assay: Growth inhibition of human MDA-MB-468 cells at 10 uM incubated for 48 hrs by sulforhodamine B assay relative to control; type: functional; conditions: MDA-MB-468, 48 h, read-out: GI
T47D [5] = assay: Cytotoxicity against human T47D cells expressing wild type BRAF measured after 48 hrs by sulforhodamine B assay; type: functional, cell-based
CCRF-CEM = assay: Growth inhibition of human CCRF-CEM cells at 10 uM incubated for 48 hrs by sulforhodamine B assay relative to control; type: functional; conditions: read-out: GI
NCI/ADR-RES = assay: Growth inhibition of human NCI/ADR-RES cells at 10 uM incubated for 48 hrs by sulforhodamine B assay relative to control; type: functional; conditions: read-out: GI
Malme-3M = assay: Growth inhibition of human MALME-3M cells at 10 uM incubated for 48 hrs by sulforhodamine B assay relative to control; type: functional; conditions: read-out: GI
UO-31 = assay: Growth inhibition of human UO31 cells at 10 uM incubated for 48 hrs by sulforhodamine B assay relative to control; type: functional; conditions: UO-31, 48 h, read-out: GI
[6] = biological target: Vascular endothelial growth factor receptor 2 (Homo sapiens, UniProt P35968); assay: Inhibition of human N-terminal GST tagged VEGFR-2 expressed in baculovirus infected Sf9 cells using poly (Glu,Tyr) 4:1 as substrate in presence of ATP by Kinase-Glo luminescence assay
HOP-92 = assay: Growth inhibition of human HOP92 cells at 10 uM incubated for 48 hrs by sulforhodamine B assay relative to control; type: functional; conditions: HOP-92, 48 h, read-out: GI
UACC-62 = assay: Growth inhibition of human UACC62 cells at 10 uM incubated for 48 hrs by sulforhodamine B assay relative to control; type: functional; conditions: UACC-62, 48 h, read-out: GI
SN12C = assay: Growth inhibition of human SN12C cells at 10 uM incubated for 48 hrs by sulforhodamine B assay relative to control; type: functional; conditions: read-out: GI
IGROV-1 = assay: Growth inhibition of human IGROV1 cells at 10 uM incubated for 48 hrs by sulforhodamine B assay relative to control; type: functional; conditions: IGROV-1, 48 h, read-out: GI
MDA-MB-231 = assay: Growth inhibition of human MDA-MB-231 cells at 10 uM incubated for 48 hrs by sulforhodamine B assay relative to control; type: functional; conditions: MDA-MB-231, 48 h, read-out: GI
DU-145 = assay: Growth inhibition of human DU145 cells at 10 uM incubated for 48 hrs by sulforhodamine B assay relative to control; type: functional; conditions: DU-145, 48 h, read-out: GI
[7] = biological target: Serine/threonine-protein kinase B-raf (Homo sapiens, UniProt P15056); assay: Inhibition of human wild type BRAF by Kinase-Glo luminescence assay
HT-29 = assay: Growth inhibition of human HT-29 cells at 10 uM incubated for 48 hrs by sulforhodamine B assay relative to control; type: functional; conditions: HT-29, 48 h, read-out: GI
SW-620 = assay: Growth inhibition of human SW620 cells at 10 uM incubated for 48 hrs by sulforhodamine B assay relative to control; type: functional; conditions: SW-620, 48 h, read-out: GI
KM12 = assay: Growth inhibition of human KM12 cells at 10 uM incubated for 48 hrs by sulforhodamine B assay relative to control; type: functional; conditions: KM12, 48 h, read-out: GI
COLO 205 = assay: Growth inhibition of human COLO205 cells at 10 uM incubated for 48 hrs by sulforhodamine B assay relative to control; type: functional; conditions: COLO 205, 48 h, read-out: GI
SR = assay: Growth inhibition of human SR cells at 10 uM incubated for 48 hrs by sulforhodamine B assay relative to control; type: functional; conditions: read-out: GI

Vascular endothelial growth factor receptor 2, sequence (P35968 whole entry): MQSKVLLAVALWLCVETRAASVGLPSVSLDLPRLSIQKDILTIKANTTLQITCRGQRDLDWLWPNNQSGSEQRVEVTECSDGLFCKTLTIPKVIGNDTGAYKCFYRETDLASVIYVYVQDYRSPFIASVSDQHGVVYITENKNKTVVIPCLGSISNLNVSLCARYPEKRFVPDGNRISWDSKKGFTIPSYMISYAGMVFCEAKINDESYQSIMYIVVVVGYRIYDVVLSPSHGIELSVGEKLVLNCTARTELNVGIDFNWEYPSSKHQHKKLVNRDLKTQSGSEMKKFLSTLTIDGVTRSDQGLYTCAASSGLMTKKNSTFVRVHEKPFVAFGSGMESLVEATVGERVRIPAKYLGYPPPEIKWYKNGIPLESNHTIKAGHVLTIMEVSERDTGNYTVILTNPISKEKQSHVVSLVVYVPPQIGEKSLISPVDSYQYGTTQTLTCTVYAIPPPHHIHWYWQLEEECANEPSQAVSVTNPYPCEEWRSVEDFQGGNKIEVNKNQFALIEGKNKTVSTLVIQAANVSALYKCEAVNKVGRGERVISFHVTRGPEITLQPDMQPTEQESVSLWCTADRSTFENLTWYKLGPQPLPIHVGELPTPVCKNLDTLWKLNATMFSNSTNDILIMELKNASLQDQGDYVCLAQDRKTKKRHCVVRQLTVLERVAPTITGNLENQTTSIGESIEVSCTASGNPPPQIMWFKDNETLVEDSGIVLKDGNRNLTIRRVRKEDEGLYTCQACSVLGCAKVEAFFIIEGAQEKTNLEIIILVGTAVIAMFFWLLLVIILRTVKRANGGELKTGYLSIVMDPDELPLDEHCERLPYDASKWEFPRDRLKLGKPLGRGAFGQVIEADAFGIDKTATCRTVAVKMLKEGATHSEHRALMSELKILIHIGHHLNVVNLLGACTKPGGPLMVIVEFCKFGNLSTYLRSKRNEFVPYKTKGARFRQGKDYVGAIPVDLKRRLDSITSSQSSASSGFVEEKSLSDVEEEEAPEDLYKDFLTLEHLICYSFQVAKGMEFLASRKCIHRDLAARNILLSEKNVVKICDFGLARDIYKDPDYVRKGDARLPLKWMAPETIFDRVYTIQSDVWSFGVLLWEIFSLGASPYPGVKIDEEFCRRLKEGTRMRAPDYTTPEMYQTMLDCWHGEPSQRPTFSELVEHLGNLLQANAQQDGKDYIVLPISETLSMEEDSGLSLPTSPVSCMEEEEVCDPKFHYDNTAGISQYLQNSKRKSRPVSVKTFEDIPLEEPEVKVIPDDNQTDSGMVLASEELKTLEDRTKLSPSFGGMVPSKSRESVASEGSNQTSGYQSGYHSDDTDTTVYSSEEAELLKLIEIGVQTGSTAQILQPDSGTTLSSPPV
Serine/threonine-protein kinase B-raf, sequence (P15056 whole entry): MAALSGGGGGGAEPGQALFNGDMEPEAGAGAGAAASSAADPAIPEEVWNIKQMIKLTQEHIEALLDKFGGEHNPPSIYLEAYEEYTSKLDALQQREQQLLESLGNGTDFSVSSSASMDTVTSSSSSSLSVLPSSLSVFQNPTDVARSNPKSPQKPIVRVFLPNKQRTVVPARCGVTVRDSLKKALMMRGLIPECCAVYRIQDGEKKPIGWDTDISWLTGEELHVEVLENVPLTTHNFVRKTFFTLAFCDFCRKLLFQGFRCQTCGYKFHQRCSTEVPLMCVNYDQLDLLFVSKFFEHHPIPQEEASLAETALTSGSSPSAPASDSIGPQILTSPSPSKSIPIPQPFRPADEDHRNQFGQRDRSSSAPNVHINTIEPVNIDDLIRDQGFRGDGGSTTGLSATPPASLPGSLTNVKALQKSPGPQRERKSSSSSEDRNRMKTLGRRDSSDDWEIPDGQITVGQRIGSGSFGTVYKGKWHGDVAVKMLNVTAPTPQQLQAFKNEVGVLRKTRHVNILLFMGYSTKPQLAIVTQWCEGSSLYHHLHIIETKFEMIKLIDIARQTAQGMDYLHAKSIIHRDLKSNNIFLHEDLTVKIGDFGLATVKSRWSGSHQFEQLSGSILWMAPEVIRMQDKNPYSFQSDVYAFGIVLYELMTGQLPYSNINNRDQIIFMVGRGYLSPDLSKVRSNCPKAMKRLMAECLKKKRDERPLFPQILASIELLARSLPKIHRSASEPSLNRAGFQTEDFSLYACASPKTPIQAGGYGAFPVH

`CC(=O)c1cccc(Nc2ccnc(SCC(=O)c3ccc(-c4ccccc4)cc3)n2)c1` gave an inhibition of growth at 10 µM (A549) of 14%, an inhibition of growth at 10 µM (HOP-62) of 19% and an inhibition of growth at 10 µM (RPMI-8226) of 34%. For the same compound, the inhibition of growth at 10 µM (MOLT-4) was 29%, the inhibition of growth at 10 µM (EKVX) was 15% and the inhibition of growth at 10 µM (NCI-H226) was 22%. The inhibition of growth at 10 µM (SK-OV-3) was 22%, the inhibition of growth at 10 µM (ACHN) was 12% and the inhibition of growth at 10 µM (HCT-15) was 15%. The inhibition of growth at 10 µM (NCI-H23) was 18%, the inhibition of growth at 10 µM (SF-539) was 11% and the pIC50 (MCF7 [1]) was 4.61. For the same compound, the inhibition at 10 µM (MCF7 [2]) was 36%, the inhibition of growth at 10 µM (PC-3) was 25% and the inhibition of growth at 10 µM (OVCAR-4) was 12%. For the same compound, the inhibition of growth at 10 µM (MCF7 [3]) was 12%, the inhibition of growth at 10 µM (T47D [4]) was 49% and the inhibition of growth at 10 µM (Hs-578T) was 14%. It also gave an inhibition of growth at 10 µM (K562) of 16%, an inhibition of growth at 10 µM (OVCAR-5) of 12% and an inhibition of growth at 10 µM (HCT-116) of 14%. The inhibition of growth at 10 µM (NCI-H522) was 38%, the inhibition of growth at 10 µM (CAKI-1) was 23% and the inhibition of growth at 10 µM (A498) was 40%. The inhibition of growth at 10 µM (MDA-MB-468) was 14%, the pIC50 (T47D [5]) was 4.92 and the inhibition of growth at 10 µM (CCRF-CEM) was 28%. For the same compound, the inhibition of growth at 10 µM (NCI/ADR-RES) was 14%, the inhibition of growth at 10 µM (Malme-3M) was 17% and the inhibition of growth at 10 µM (UO-31) was 40%. The pIC50 [6] was 6.13, the inhibition of growth at 10 µM (HOP-92) was 17% and the inhibition of growth at 10 µM (UACC-62) was 24%. It also gave an inhibition of growth at 10 µM (SN12C) of 13%, an inhibition of growth at 10 µM (IGROV-1) of 20% and an inhibition of growth at 10 µM (MDA-MB-231) of 41%.
Compound `CC(=O)c1ccc(Nc2ccnc(SCC(=O)c3ccc(-c4ccccc4)cc3)n2)cc1` has an inhibition of growth at 10 µM (A549) of 20%, an inhibition of growth at 10 µM (HOP-62) of 13% and an inhibition of growth at 10 µM (RPMI-8226) of 26%. The inhibition of growth at 10 µM (NCI-H226) was 11%, the inhibition of growth at 10 µM (SK-OV-3) was 11% and the inhibition of growth at 10 µM (ACHN) was 26%. For the same compound, the inhibition of growth at 10 µM (HCT-15) was 13%, the inhibition of growth at 10 µM (NCI-H23) was 10% and the inhibition of growth at 10 µM (DU-145) was 16%. The inhibition of growth at 10 µM (SF-539) was 13%, the pIC50 (MCF7 [1]) was 4.18 and the inhibition of growth at 10 µM (PC-3) was 19%. It also gave a pIC50 [7] of 5.98, an inhibition of growth at 10 µM (T47D [4]) of 29% and an inhibition of growth at 10 µM (K562) of 10%. It also gave an inhibition of growth at 10 µM (HT-29) of 16%, an inhibition of growth at 10 µM (HCT-116) of 42% and an inhibition of growth at 10 µM (NCI-H522) of 22%. It also gave an inhibition of growth at 10 µM (CAKI-1) of 16%, an inhibition of growth at 10 µM (SW-620) of 26% and an inhibition of growth at 10 µM (A498) of 55%. It also gave an inhibition of growth at 10 µM (KM12) of 24%, an inhibition of growth at 10 µM (MDA-MB-468) of 13% and an inhibition of growth at 10 µM (COLO 205) of 11%. For the same compound, the inhibition of growth at 10 µM (CCRF-CEM) was 22%, the inhibition of growth at 10 µM (Malme-3M) was 14% and the inhibition of growth at 10 µM (UO-31) was 27%. The pIC50 [6] was 6.55, the inhibition of growth at 10 µM (HOP-92) was 21% and the inhibition of growth at 10 µM (UACC-62) was 20%. It also gave an inhibition of growth at 10 µM (SN12C) of 11%, an inhibition of growth at 10 µM (IGROV-1) of 14% and an inhibition of growth at 10 µM (MDA-MB-231) of 22%. The inhibition of growth at 10 µM (SR) was 41%.
